Earlier results as cited in patent publication US20230174671A1, “COMPOSITIONS AND METHODS FOR TREATING VIRAL INFECTIONS” (BIOVISTA, INC., priority 2020, published 2023).
Counter-ions that a name gives are not always drawn.

Tests used:
SARS-CoV = conditions: HeLa cells expressing TMPRSS2; Kawase et al, 2012
[1] = test system: human coronavirus NL63 (HCoV-NL63); conditions: HeLa cells expressing TMPRSS2; Kawase et al, 2012

CN(C)C(=O)COC(=O)Cc1ccc(OC(=O)c2ccc(NC(=N)N)cc2)cc1 [camostat mesylate]
block of infection by SARS-CoV (SARS-CoV): partially block infection
block of infection by human coronavirus NL63 (HCoV-NL63) [1]: partially block infection
